Data: ChEMBL document CHEMBL3885881, “DrugMatrix”

Organism: Rattus norvegicus
Assay: DrugMatrix - Regimen: Daily Repeat
Format: toxicity, organism-based, Sprague-Dawley
Design: regimen Daily Repeat, gender Male, age 6-8 weeks
Details: in vivo, sc, route subcutaneous, […]; for ABSOLUTE BASOPHIL / ABSOLUTE EOSINOPHIL / ABSOLUTE LYMPHOCYTE / ABSOLUTE MONOCYTE / BASOPHIL / EOSINOPHIL / ERYTHROCYTE COUNT / HEMATOCRIT / HEMOGLOBIN / LEUKOCYTE COUNT / LYMPHOCYTE / MEAN CORPUSCULAR HEMOGLOBIN / MEAN CORPUSCULAR HEMOGLOBIN CONCENTRATION / MEAN CORPUSCULAR VOLUME / MONOCYTE / NEUTROPHIL / NUCLEATED RED BLOOD CELLS / PLATELET COUNT: tissue Blood; for ALANINE AMINOTRANSFERASE / ALBUMIN / ASPARTATE AMINOTRANSFERASE / BLOOD UREA NITROGEN / CARBON DIOXIDE / CHLORIDE / CHOLESTEROL / CREATINE PHOSPHOKINASE / CREATININE / LACTATE DEHYDROGENASE / LIPASE / PHOSPHORUS / POTASSIUM / SODIUM / TOTAL BILIRUBIN / TOTAL PROTEIN / URIC ACID / GLUCOSE: tissue Plasma
[1] = 0 mg/kg, 72 h, dose level Control, time 3 day
[2] = 0 mg/kg, 120 h, dose level Control, time 5 day
[3] = 64 mg/kg, 72 h, dose level Low, time 3 day

Nc1ccc(S(N)(=O)=O)cc1 [SULFANILAMIDE]
ABSOLUTE BASOPHIL [1]: 0 CELLS/uL | ABSOLUTE EOSINOPHIL [1]: 92.33 CELLS/uL | ABSOLUTE LYMPHOCYTE [1]: 12247.5 CELLS/uL | ABSOLUTE MONOCYTE [1]: 389.67 CELLS/uL | BASOPHIL [1]: 0% | EOSINOPHIL [1]: 0.67% | ERYTHROCYTE COUNT [1]: 5.45 x10E6/uL | HEMATOCRIT [1]: 34.85% | HEMOGLOBIN [1]: 12.97 G/DL | LEUKOCYTE COUNT [1]: 14.05 x10E3/uL | LYMPHOCYTE [1]: 87.33% | MEAN CORPUSCULAR HEMOGLOBIN [1]: 23.78 pg | MEAN CORPUSCULAR HEMOGLOBIN CONCENTRATION [1]: 37.22 G/DL | MEAN CORPUSCULAR VOLUME [1]: 63.93 fL | MONOCYTE [1]: 2.67% | NEUTROPHIL [1]: 9.33% | NUCLEATED RED BLOOD CELLS [1]: 0 /100WBC | PLATELET COUNT [1]: 1174 x10E3/uL | ALANINE AMINOTRANSFERASE [1]: 48.83 u/L | ALBUMIN [1]: 4.23 G/DL | ASPARTATE AMINOTRANSFERASE [1]: 90 u/L | BLOOD UREA NITROGEN [1]: 15.33 mg/dL | CARBON DIOXIDE [1]: 23 mmol/L | CHLORIDE [1]: 103.5 MEQ/L | CHOLESTEROL [1]: 70.5 mg/dL | CREATINE PHOSPHOKINASE [1]: 651.83 u/L | CREATININE [1]: 0.22 mg/dL | LACTATE DEHYDROGENASE [1]: 165 u/L | LIPASE [1]: 9.33 u/L | PHOSPHORUS [1]: 12.03 mg/dL | POTASSIUM [1]: 6.17 MEQ/L | SODIUM [1]: 142.62 MEQ/L | TOTAL BILIRUBIN [1]: 0.2 mg/dL | TOTAL PROTEIN [1]: 5.73 G/DL | URIC ACID [1]: 1.77 mg/dL | ABSOLUTE BASOPHIL [2]: 0 CELLS/uL | ABSOLUTE EOSINOPHIL [2]: 0 CELLS/uL | ABSOLUTE LYMPHOCYTE [2]: 12736.67 CELLS/uL | ABSOLUTE MONOCYTE [2]: 253.5 CELLS/uL | BASOPHIL [2]: 0% | EOSINOPHIL [2]: 0% | ERYTHROCYTE COUNT [2]: 5.72 x10E6/uL | HEMATOCRIT [2]: 36.05% | HEMOGLOBIN [2]: 13.62 G/DL | LEUKOCYTE COUNT [2]: 14.18 x10E3/uL | LYMPHOCYTE [2]: 89.33% | MEAN CORPUSCULAR HEMOGLOBIN [2]: 23.83 pg | MEAN CORPUSCULAR HEMOGLOBIN CONCENTRATION [2]: 37.8 G/DL | MEAN CORPUSCULAR VOLUME [2]: 63.05 fL | MONOCYTE [2]: 1.83% | NEUTROPHIL [2]: 8.83% | NUCLEATED RED BLOOD CELLS [2]: 0 /100WBC | PLATELET COUNT [2]: 1322.17 x10E3/uL | ALANINE AMINOTRANSFERASE [2]: 48.83 u/L | ALBUMIN [2]: 4.27 G/DL | ASPARTATE AMINOTRANSFERASE [2]: 75.83 u/L | BLOOD UREA NITROGEN [2]: 15.5 mg/dL | CARBON DIOXIDE [2]: 30.5 mmol/L | CHLORIDE [2]: 102.33 MEQ/L | CHOLESTEROL [2]: 76.17 mg/dL | CREATINE PHOSPHOKINASE [2]: 205.5 u/L | CREATININE [2]: 0.2 mg/dL | GLUCOSE [2]: 149.67 mg/dL | LACTATE DEHYDROGENASE [2]: 124.5 u/L | LIPASE [2]: 10 u/L | PHOSPHORUS [2]: 10.93 mg/dL | POTASSIUM [2]: 6.59 MEQ/L | SODIUM [2]: 143.1 MEQ/L | TOTAL BILIRUBIN [2]: 0.2 mg/dL | TOTAL PROTEIN [2]: 6.05 G/DL | URIC ACID [2]: 1.45 mg/dL | ABSOLUTE BASOPHIL [3]: 0 CELLS/uL | ABSOLUTE EOSINOPHIL [3]: 0 CELLS/uL | ABSOLUTE LYMPHOCYTE [3]: 13215.67 CELLS/uL | ABSOLUTE MONOCYTE [3]: 191 CELLS/uL | BASOPHIL [3]: 0% | EOSINOPHIL [3]: 0% | ERYTHROCYTE COUNT [3]: 5.71 x10E6/uL | HEMATOCRIT [3]: 36.53% | HEMOGLOBIN [3]: 13.5 G/DL | LEUKOCYTE COUNT [3]: 14.17 x10E3/uL | LYMPHOCYTE [3]: 93.33% | MEAN CORPUSCULAR HEMOGLOBIN [3]: 23.67 pg | MEAN CORPUSCULAR HEMOGLOBIN CONCENTRATION [3]: 36.97 G/DL | MEAN CORPUSCULAR VOLUME [3]: 64.03 fL | MONOCYTE [3]: 1.33% | NEUTROPHIL [3]: 5.33% | NUCLEATED RED BLOOD CELLS [3]: 0 /100WBC | PLATELET COUNT [3]: 1225.33 x10E3/uL | ALANINE AMINOTRANSFERASE [3]: 53 u/L | ALBUMIN [3]: 4.13 G/DL | ASPARTATE AMINOTRANSFERASE [3]: 87 u/L | BLOOD UREA NITROGEN [3]: 16.33 mg/dL | CARBON DIOXIDE [3]: 25.33 mmol/L | CHLORIDE [3]: 103 MEQ/L | CHOLESTEROL [3]: 70.33 mg/dL | CREATINE PHOSPHOKINASE [3]: 269 u/L | CREATININE [3]: 0.24 mg/dL | GLUCOSE [3]: 150.67 mg/dL | LACTATE DEHYDROGENASE [3]: 408.33 u/L | LIPASE [3]: 10 u/L | PHOSPHORUS [3]: 13.03 mg/dL | POTASSIUM [3]: 6.94 MEQ/L | SODIUM [3]: 144.53 MEQ/L | TOTAL BILIRUBIN [3]: 0.27 mg/dL | TOTAL PROTEIN [3]: 5.7 G/DL | URIC ACID [3]: 1.7 mg/dL
